{"source": "patent US9474790B2", "about": "“Stable, protracted GLP-1/glucagon receptor co-agonists for medical use” (Novo Nordisk A/S, priority 2013, dated 2016)", "key": {"human glucagon receptor": {"biological_target": "T1, human glucagon receptor (Homo sapiens, UniProt P47871)", "T1 construct": "expressed in transfected cells; host or cells: BHK cells (parent BHK570, CRE luciferase clone BHK/KZ10-20-48), clone pLJ6'-4-25", "T1 sequence (P47871 26-477)": "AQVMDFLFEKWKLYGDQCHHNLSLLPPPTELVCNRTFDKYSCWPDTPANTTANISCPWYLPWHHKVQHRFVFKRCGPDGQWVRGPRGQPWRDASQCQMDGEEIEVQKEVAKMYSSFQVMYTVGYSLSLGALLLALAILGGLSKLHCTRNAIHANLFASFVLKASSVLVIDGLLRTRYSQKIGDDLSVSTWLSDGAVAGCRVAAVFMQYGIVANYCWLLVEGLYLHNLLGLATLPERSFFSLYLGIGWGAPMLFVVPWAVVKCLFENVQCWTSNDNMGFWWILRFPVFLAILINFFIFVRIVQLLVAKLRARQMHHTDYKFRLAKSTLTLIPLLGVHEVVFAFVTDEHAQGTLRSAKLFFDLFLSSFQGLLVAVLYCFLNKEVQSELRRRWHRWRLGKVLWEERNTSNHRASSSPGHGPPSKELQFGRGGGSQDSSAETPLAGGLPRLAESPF", "assay": "Glucagon receptor potency, CRE luciferase reporter gene assay in BHK cells", "format": "cell-based", "conditions": "BHK cells expressing human glucagon receptor, read-out: EC50 GlucR", "method": "The purpose of this example was to test the potency, of the glucagon derivatives of the invention, in vitro. The in vitro potency is the measure of human GLP-1 receptor or glucagon receptor activation, respectively, in a whole cell assay.\nIn vitro potency was determined by measuring the response of human GLP-1 or glucagon receptor, respectively, in a reporter gene assay. The assay was performed in a stably transfected BHK cell line that expresses either the human GLP-1 receptor or the human glucagon receptor and contains the DNA for the cAMP response element (CRE) coupled to a promoter and the gene for firefly luciferase (CRE luciferase). […] When assay incubation was completed, the luciferase substrate (luciferin) was added and the enzyme converted luciferin to oxyluciferin and produces bioluminescence. The luminescence was measured as the readout for the assay.\nThe cells used in this assay (clone pLJ6′-4-25) were BHK cells with BHK570 as a parent cell line expressing the CRE luciferase gene (clone BHK/KZ10-20-48) and were established by further transfection with the human glucagon receptor (clone pLJ6′ in pHZ-1 vector).\nThe cells were cultured at 5% CO2 in DMEM medium with 10% FBS, 1×GlutaMAX, 1 mg/ml G418, 240 nM MTX (methotrexate) and 1% pen/strep (penicillin/streptomycin). They were aliquoted and stored in liquid nitrogen. Before each assay, an aliquot was taken up and washed three times in PBS before being suspended at the desired concentration in assay medium. For 96-well plates the suspension was made to give a final concentration of 5×10EE3 cells/well.\nThe following chemicals were used in the assay: Pluronic F-68 (10%) (Gibco 2404), ovalbumin (Sigma A5503), DMEM w/o phenol red (Gibco 11880-028), 1 M Hepes (Gibco 15630), Glutamax 100× (Gibco 35050) and steadylite plus (PerkinElmer 6016757).\nAssay Medium consisted of DMEM w/o phenol red, 10 mM Hepes, 1× GlutaMAX, 2% Ovalbumin and 0.2% Pluronic F-68.\nCell stocks were thawed in a 37° C. water bath. Cells were washed three times in PBS. The cells were counted and adjusted to 5×10EE3 cells/50 μl (1×10EE5 cells/ml) in Assay Medium. A 50 μl aliquot of cells was transferred to each well in the assay plate.\nStocks of the test compounds and reference compounds were diluted to a concentration of […] in Assay Medium. Compounds were diluted 10-fold to give the following concentrations: 2×10EE-6 M, 2×10EE-7 M, 2×10EE-8 M; 2×10EE-9 M, 2×10EE-10 M, 2×10EE-11 M, 2×10EE-12 M and 2×10EE-13 M. For each compound a blank assay medium control was also included.\nA 50 μl aliquot of compound or blank was transferred from the dilution plate to the assay plate. Compounds were tested at the following final concentrations: 1×10EE-6 M, 1×10EE-7 M, 1×10EE-8 M; 1×10EE-9 M, 1×10EE-10 M, 1×10EE-11 M and 1×10EE-12 M and 1×10EE-13 M.\nThe assay plate was incubated for 3 h in a 5% CO2 incubator at 37° C. The assay plate was removed from the incubator and allowed to stand at room temperature for 15 min. A 100 μl aliquot of steadylite plus reagent was added to each well of the assay plate (reagent is light sensitive). Each assay plate was covered with aluminum foil to protect it from light and shaken for 30 min at room temperature. Each assay plate was read in a Perkin Elmer TopCount NXT instrument.\nThe data from the TopCount instrument was transferred to GraphPad Prism software. The software performed a non-linear regression (log(agonist) vs response-Variable slope (four parameter)). EC50 values were calculated by the software and reported in pM."}, "[1]": {"assay": "Chemical stability assessment by RP-UPLC", "format": "physicochemical", "conditions": "333 μM, 8 mM phosphate buffer pH 7.3, 37° C. vs 5° C.", "method": "The purpose of this assay was to assess the chemical stability of the glucagon derivatives of the invention in aqueous solutions.\nChemical stability of glucagon derivatives or analogues was investigated by RP-UPLC separation and UV detection. Lyophilized samples were dissolved in a 8 mM Phosphate buffer pH 8.6, followed by adjustment to pH 7.3.using HCl to a final concentration of 333 μM. Samples were incubated for 14 days at 5° C. and 37° C. followed by RP-UPLC analysis. Purity was defined as the area percentage of the main peak in relation to the total area of all integrated peaks in each chromatogram. Purity loss after 14 days at 37° C. was determined as the difference in purity between the samples incubated at 5° C. and 37° C., divided by the purity of the sample after incubation for 14 days at 5° C.\nRP-UPLC analysis was performed using a Waters BEH130 2.1 mm×150 mm, 1.7 μm column operated at 50° C. and a flow rate of 0.4 mL/min using a mobile phase system consisting of A: 0.05% TFA in MQ-water B: 0.05% TFA in Acetonitrile. UV-detection was performed at 215 nm. The typical gradient profile used for most of the samples is shown below.\nFor some individual derivatives or analogues eluting at substantially different retention times compared with the majority of derivatives or analogues, some adjustments to the gradient profile were made to better enable purity assessment comparison across samples. The data confirmed the improved chemical stability of the glucagon derivatives of this invention."}, "[2]": {"assay": "Thioflavin T (ThT) fibrillation assay for physical stability", "format": "physicochemical", "conditions": "250 μM in 10 mM HEPES buffer, pH 7.5, 37° C., shaking 960 rpm", "method_in_brief": "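Peptide at 250 μM in 10 mM HEPES pH 7.5 with 1 μM ThT, at 37° C with 960 rpm orbital shaking. Fluorescence (ex 444/em 485 nm) read every 20 min after 10 min pre-incubation; sigmoidal fit gives lag time (t0−2τ) and kapp (1/τ). Recovery is RP-HPLC peptide in the centrifuged, 0.22 μm-filtered supernatant as % of initial.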"}}, "note": "Numbered stars: 1 amine (or outer) side, 2 acyl side, 3 side chain; on linkers, the order of the positions; unused ones are H or OH. Square brackets hold non-standard residues; d marks the D form. Side chains are listed from the residue outwards. Peptide text beside a SMILES is read from it. * marks the point of attachment. C18 diacid = O=C(O)CCCCCCCCCCCCCCCCC(=O)*; γGlu = O=C(O)[C@H](CCC(=O)[*:2])N[*:1]; AEEA = NCCOCCOCC(=O)O; Aib = CC(C)(N)C(=O)O"}
{"molecule": "CC(C)C[C@H](NC(=O)[C@H](CC(C)C)NC(=O)[C@H](Cc1c[nH]c2ccccc12)NC(=O)[C@H](CCC(N)=O)NC(=O)[C@@H](NC(=O)[C@H](Cc1ccccc1)NC(=O)[C@H](CCC(=O)O)NC(=O)[C@H](CCCNC(=N)N)NC(=O)[C@H](C)NC(=O)[C@H](CCCNC(=N)N)NC(=O)[C@H](CCCNC(=N)N)NC(=O)[C@H](CC(C)C)NC(=O)[C@H](CC(=O)O)NC(=O)[C@H](CC(C)C)NC(=O)[C@H](Cc1ccc(O)cc1)NC(=O)[C@H](CCCCN)NC(=O)[C@H](CO)NC(=O)[C@H](CC(C)C)NC(=O)[C@H](CC(=O)O)NC(=O)[C@H](CO)NC(=O)[C@@H](NC(=O)[C@H](Cc1ccccc1)NC(=O)[C@@H](NC(=O)CNC(=O)[C@H](CCC(N)=O)NC(=O)C(C)(C)NC(=O)[C@@H](N)Cc1c[nH]cn1)[C@@H](C)O)[C@@H](C)O)C(C)C)C(=O)N[C@@H](CC(N)=O)C(=O)N[C@@H](CCCCNC(=O)CC[C@H](NC(=O)CC[C@H](NC(=O)COCCOCCNC(=O)CC[C@H](NC(=O)CCCCCCCCCCCCCCCCC(=O)O)C(=O)O)C(=O)O)C(=O)O)C(N)=O", "note": "[Example 38, N^ε29-[(4S)-4-carboxy-4-[[(4S)-4-carboxy-4-[[2-[2-[2-[[(4S)-4-carboxy-4-(17-carboxyheptadecanoylamino)butanoyl]amino]ethoxy]ethoxy]acetyl]amino]butanoyl]amino]butanoyl]-[Aib2,Leu10,Leu16,Arg20,Glu21,Leu27,Lys29]-Glucagon amide] (H-H[Aib]QGTFTSDLSKYLDLRRAREFVQWLLNK([γGlu-γGlu-AEEA-γGlu-C18 diacid])-NH2; N-terminus assumed)", "values": [{"measurement": "EC50", "setting": "human glucagon receptor", "value": 0.024, "unit": "nM"}, {"measurement": "Purity loss; 14 days at 37° C.", "setting": "[1]", "value": 2, "unit": "%"}, {"measurement": "THT assay Lag time (Ex. 76)", "setting": "[2]", "value": 45, "unit": "h"}]}
